# Experimental data reported in PMC8348110, “A Novel Peptide Derived from the Transmembrane Domain of Romo1 Is a Promising Candidate for Sepsis Treatment and Multidrug-Resistant Bacteria” (International Journal of Molecular Sciences, 2021).
# Residues, ends and D or L forms follow the SMILES beside them.
# Assays:
# [1] = system: P. aeruginosa or S. aureus; assay type: in vitro ADME
# Description: Figure 4 The antibacterial activity of AMPR-22 in various physiological conditions. (A,B) Effects of AMPR-22 activity in mouse plasma and human serum. AMPR-22 was incubated with blood components for the indicated times (0, 15, 30, 60, 90, 120, 150, and 180 min) and then with P. aeruginosa or S. aureus for an hour. (C,D) Effects of AMPR-22 activity in low-density lipoprotein (LDL), high-density lipoprotein (HDL), and bovine serum albumin. AMPR-22 was incubated with blood components for the indicated times (0, 30, 60, 120, and 180 min) and then with P. aeruginosa or S. aureus for an hour. (E) Effects of AMPR-22 activity in whole blood. AMPR-22 was incubated with mouse and human whole blood for the indicated times (0, 30, 60, 90, 120, and 180 min) and then with P. aeruginosa for an hour. (F,G) The antibacterial activity of AMPR-22 in vivo. AMPR-22 was intravenously administered into P. aeruginosa-infected mice, and blood was collected from the tail veins of the mice at the indicated times (0, 15, 30, 60, and 90 min). (F) The relative CFU in blood samples was calculated using the following formula: CFU at indicated time ÷ CFU at 0 min × 100 (%). (G) The relative CFU of blood samples obtained from F was re-graphed using the following formula: CFU of AMPR-22-treated mouse group ÷ CFU of control (PBS) group × 100 (%). (H) The functional half-life measurement of AMPR-22. AMPR-22 was intravenously administered into mice, and blood was collected at the indicated times (0, 5, 30, 60, 90, 120, 150, and 180 min). The blood was collected by cardiac puncture, and the plasma was isolated by centrifugation. Then, the plasma was incubated with P. aeruginosa for an hour. The antibacterial activity was measured using a colony-forming unit assay. […]
# (§1) We used the CFU counting method to measure antibacterial activity, with all bacteria cultured to the mid-log phase in an appropriate broth medium. Bacterial CFUs were counted after overnight culture at 37 °C on TS or LB agar plates. The MBC value and antibacterial activity in blood components were determined as previously described. […]
# [2] = system: Methicillin-resistant S. aureus (MRSA) ATCC 33591; assay type: cell-based, Staphylococcus aureus
# How it was run: (§2)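 Steps: grow cells to mid-log; dilute to 5 × 10^5 CFU/mL in 10 mM sodium phosphate, pH 7.4, with 1% TS broth; add peptide (two-fold dilutions starting at 64 μg/mL) for 1 h; spread onto TS agar, 37 °C overnight; score the lowest colony-free concentration.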
# [3] = system: Vancomycin-resistant S. aureus NCCP 15872; assay type: cell-based, Staphylococcus aureus; details: Vancomycin-resistant NCCP 15872, 1 h
# How it was run: as §2
# [4] = system: Carbapenem-resistant P. aeruginosa (CRPA), clinical isolate; assay type: cell-based, Pseudomonas aeruginosa; details: 1 h
# How it was run: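 Mid-log clinical isolates diluted to 5 × 10^5 CFU/mL in 10 mM sodium phosphate (pH 7.4) with 1% TS broth, exposed 1 h to peptides two-fold diluted from 64 μg/mL, then plated on TS agar overnight at 37 °C. MBC is the lowest concentration with no colonies.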
# P. aeruginosa = details: mouse, iv, 40 mg/kg
# Description: Figure 4 The antibacterial activity of AMPR-22 in various physiological conditions. (A,B) Effects of AMPR-22 activity in mouse plasma and human serum. AMPR-22 was incubated with blood components for the indicated times (0, 15, 30, 60, 90, 120, 150, and 180 min) and then with P. aeruginosa or S. aureus for an hour. (C,D) Effects of AMPR-22 activity in low-density lipoprotein (LDL), high-density lipoprotein (HDL), and bovine serum albumin. AMPR-22 was incubated with blood components for the indicated times (0, 30, 60, 120, and 180 min) and then with P. aeruginosa or S. aureus for an hour. (E) Effects of AMPR-22 activity in whole blood. AMPR-22 was incubated with mouse and human whole blood for the indicated times (0, 30, 60, 90, 120, and 180 min) and then with P. aeruginosa for an hour. (F,G) The antibacterial activity of AMPR-22 in vivo. […] (F) The relative CFU in blood samples was calculated using the following formula: CFU at indicated time ÷ CFU at 0 min × 100 (%). […] The antibacterial activity was measured using a colony-forming unit assay. […]
# as §1
compound,measurement,setting,value
CC[C@H](C)[C@H](NC(=O)CNC(=O)CNC(=O)[C@@H](NC(=O)[C@H](C)NC(=O)[C@H](CCSC)NC(=O)[C@H](Cc1ccccc1)NC(=O)[C@@H](NC(=O)CNC(=O)[C@H](Cc1ccccc1)NC(=O)[C@H](CCCCN)NC(=O)CNC(=O)CNC(=O)[C@H](CCCCN)NC(=O)[C@H](CCCCN)NC(=O)[C@H](CCSC)NC(=O)[C@H](CCSC)NC(=O)[C@H](CCCCN)NC(=O)[C@@H](N)CCCCN)[C@@H](C)O)[C@@H](C)CC)C(=O)N[C@@H](CCCNC(=N)N)C(=O)O [AMPR-22] (H-KKMMKKGGKFGTFMAIGGIR-OH),"Antibacterial activity in presence of human LDL, HDL or bovine serum albumin",[1],not affected
same,Functional half-life in vitro,[1],around 90 min
same,Half-life of antibacterial activity in mouse plasma and human serum,[1],longer than that of AMPR-11
same,"MBC Value, MRSA","[2]; ATCC 33591, 1 h",2 µg/mL
same,"MBC Value, Methicillin-resistant S. aureus","[2]; Table 2, ATCC 33591, modified MBC",2 µg/mL
same,"MBC Value, Vancomycin-resistant S. aureus",[3],4 µg/mL
same,"MBC Value, CRPA",[4],4 µg/mL
same,"MBC Value, Carbapenem-resistant P. aeruginosa",[4],4 µg/mL
same,Antibacterial activity maintained 37 min after peptide injection,P. aeruginosa; in vivo,more than 50%
same,Functional half-life in vivo,P. aeruginosa,around 37 min
